These results are taken from ChEMBL document CHEMBL1909046, “DrugMatrix in vitro pharmacology data”.

Data set [1] concerns the target T1, C-C chemokine receptor type 4 (Homo sapiens, UniProt P51679). Note: in other assays of this panel Not Active means under 50% inhibition at 10 µM.
T1 sequence (P51679 whole entry): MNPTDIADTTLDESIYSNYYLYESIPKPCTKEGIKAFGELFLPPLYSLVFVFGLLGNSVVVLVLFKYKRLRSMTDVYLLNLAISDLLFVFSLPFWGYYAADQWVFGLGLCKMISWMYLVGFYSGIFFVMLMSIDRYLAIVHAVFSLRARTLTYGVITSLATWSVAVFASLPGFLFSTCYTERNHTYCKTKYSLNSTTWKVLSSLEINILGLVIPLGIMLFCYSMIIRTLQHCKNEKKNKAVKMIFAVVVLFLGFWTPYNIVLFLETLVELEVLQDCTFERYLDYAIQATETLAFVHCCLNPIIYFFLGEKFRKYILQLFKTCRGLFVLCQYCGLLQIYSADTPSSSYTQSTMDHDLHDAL
The class given is cell membranes, Membrane. The conditions noted are these: chem-1.

A short description of data set [2]: DRUGMATRIX: Platelet-Derived Growth Factor (PDGF) radioligand binding (ligand: [125I] PDGF). The class given is cell-based. To be noted: nih3t3; Not Active = under 50% inhibition at 10 µM.
Data set [3] has as its target Cannabinoid receptor 1 (Homo sapiens, UniProt P21554). The class given is cell membranes, Chem-1, Membrane. To be noted: chem-1. Note: in other assays of this panel Not Active means under 50% inhibition at 10 µM.
In data set [4] the target is Voltage-gated inwardly rectifying potassium channel KCNH2 (Homo sapiens, UniProt Q12809). To be noted: hek293. Note: in other assays of this panel Not Active means under 50% inhibition at 10 µM.
Sequence of Voltage-gated inwardly rectifying potassium channel KCNH2 (Q12809 whole entry): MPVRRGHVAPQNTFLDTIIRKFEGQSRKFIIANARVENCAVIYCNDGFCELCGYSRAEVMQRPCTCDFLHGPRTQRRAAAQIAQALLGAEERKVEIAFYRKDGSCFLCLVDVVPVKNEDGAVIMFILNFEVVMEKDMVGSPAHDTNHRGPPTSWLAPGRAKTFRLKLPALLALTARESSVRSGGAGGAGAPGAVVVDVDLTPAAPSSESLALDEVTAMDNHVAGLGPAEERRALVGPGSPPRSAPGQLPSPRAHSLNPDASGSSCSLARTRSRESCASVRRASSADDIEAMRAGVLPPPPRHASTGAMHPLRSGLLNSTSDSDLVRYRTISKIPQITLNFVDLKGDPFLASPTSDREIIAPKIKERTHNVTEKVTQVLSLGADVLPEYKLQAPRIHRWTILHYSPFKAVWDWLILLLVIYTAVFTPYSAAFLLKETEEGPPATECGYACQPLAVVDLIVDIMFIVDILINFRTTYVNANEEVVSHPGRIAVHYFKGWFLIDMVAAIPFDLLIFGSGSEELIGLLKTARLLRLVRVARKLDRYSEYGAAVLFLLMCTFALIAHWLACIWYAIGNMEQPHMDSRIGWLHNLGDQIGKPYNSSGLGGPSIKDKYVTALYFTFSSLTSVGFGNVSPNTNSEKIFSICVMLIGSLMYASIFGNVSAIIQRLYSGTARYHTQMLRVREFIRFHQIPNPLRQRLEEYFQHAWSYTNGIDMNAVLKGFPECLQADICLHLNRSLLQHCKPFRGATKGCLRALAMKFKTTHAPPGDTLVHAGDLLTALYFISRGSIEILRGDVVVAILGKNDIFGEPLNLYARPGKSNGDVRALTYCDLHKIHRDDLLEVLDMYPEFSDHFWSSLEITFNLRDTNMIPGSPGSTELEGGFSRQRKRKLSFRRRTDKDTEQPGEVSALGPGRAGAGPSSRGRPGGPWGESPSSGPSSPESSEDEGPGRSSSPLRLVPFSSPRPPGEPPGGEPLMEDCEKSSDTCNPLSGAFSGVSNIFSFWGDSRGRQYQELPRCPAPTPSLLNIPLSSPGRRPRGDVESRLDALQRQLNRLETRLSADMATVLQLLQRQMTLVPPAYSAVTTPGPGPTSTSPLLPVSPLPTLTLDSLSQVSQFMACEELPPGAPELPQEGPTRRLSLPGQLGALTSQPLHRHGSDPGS
The target of data set [5] is T2, Progesterone receptor (Bos taurus, UniProt Q690N0).
T2 sequence (Q690N0 whole entry): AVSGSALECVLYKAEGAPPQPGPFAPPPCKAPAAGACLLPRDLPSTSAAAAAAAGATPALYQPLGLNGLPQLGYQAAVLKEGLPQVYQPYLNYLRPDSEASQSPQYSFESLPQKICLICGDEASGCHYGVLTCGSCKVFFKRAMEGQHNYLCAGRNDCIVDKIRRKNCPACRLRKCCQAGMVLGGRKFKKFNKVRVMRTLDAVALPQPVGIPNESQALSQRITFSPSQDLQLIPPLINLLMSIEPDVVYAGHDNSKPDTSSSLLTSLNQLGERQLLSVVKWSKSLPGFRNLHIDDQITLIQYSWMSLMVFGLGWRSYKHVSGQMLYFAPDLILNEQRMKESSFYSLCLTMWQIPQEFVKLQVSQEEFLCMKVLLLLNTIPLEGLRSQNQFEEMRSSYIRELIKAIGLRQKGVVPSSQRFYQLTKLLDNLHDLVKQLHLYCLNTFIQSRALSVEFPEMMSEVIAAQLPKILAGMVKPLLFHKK
Kind of data set: DRUGMATRIX: Progesterone radioligand binding (ligand: [3H] R-5020). The class given is tissue-based, Uterus. To be noted: Not Active = under 50% inhibition at 10 µM.

Data set [6] can be described thus: DRUGMATRIX: Interleukin IL-1 radioligand binding (ligand: [125I] interleukin 1beta). The class given is cell membranes, Membrane. The conditions noted are these: nih3t3; Not Active = under 50% inhibition at 10 µM.
Data set [7] has as its target T3, D(4) dopamine receptor (Homo sapiens, UniProt P21917).
T3 sequence (P21917 whole entry): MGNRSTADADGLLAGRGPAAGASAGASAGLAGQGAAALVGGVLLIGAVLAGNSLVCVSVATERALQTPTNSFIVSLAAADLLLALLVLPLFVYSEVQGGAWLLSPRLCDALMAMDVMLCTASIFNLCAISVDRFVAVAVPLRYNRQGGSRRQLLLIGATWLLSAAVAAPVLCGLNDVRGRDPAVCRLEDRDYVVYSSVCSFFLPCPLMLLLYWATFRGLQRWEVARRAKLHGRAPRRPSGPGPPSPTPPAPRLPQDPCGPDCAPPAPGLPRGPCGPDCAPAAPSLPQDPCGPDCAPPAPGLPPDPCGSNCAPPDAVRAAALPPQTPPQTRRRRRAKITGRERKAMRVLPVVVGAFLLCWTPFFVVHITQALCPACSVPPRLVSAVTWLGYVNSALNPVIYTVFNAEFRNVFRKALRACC
The experiment in a line: DRUGMATRIX: Dopamine D4.2 radioligand binding (ligand: [3H] Spiperone). The class given is cell membranes, Membrane. To be noted: cho-k1; Not Active = under 50% inhibition at 10 µM.

Data set [8] can be described thus: DRUGMATRIX: Phosphodiesterase PDE4 enzyme inhibition (substrate: [3H]cAMP + cAMP). The conditions noted are these: u-937; Not Active = under 50% inhibition at 10 µM.

Sequence of Cannabinoid receptor 1 (P21554 whole entry): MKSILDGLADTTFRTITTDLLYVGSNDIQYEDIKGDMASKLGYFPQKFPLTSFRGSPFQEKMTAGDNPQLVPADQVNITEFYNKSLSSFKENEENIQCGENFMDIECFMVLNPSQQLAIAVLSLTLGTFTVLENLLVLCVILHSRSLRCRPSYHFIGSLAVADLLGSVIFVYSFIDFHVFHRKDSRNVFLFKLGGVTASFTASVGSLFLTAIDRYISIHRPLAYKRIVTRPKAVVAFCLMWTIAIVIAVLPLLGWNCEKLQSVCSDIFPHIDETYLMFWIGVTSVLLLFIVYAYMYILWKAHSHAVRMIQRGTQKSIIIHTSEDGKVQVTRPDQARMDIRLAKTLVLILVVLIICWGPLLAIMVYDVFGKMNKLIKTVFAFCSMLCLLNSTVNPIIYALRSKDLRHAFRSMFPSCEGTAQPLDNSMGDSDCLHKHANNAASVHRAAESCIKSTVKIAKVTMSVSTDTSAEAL

On to `CCN[C@@H]1C[C@H](N)[C@@H](O[C@H]2OC(CN)=CC[C@H]2N)[C@H](O)[C@H]1O[C@H]1OC[C@](C)(O)[C@H](NC)[C@H]1O` [NETILMICIN], for which the IC50 result in data set [1], in data set [2], in data set [3], in data set [4], in data set [5] and in data set [6] was “Not Active” each time. The IC50 entry in data set [7] and in data set [8] was “Not Active” each time. Also, the Ki result in data set [2], in data set [4], in data set [6] and in data set [8] was “Not Active” each time.
For `CCOC(=O)C1=C(C)NC(C)=C(C(=O)OC)C1c1cccc([N+](=O)[O-])c1` (configuration not stated) [NITRENDIPINE], the IC50 result in data set [1], in data set [2], in data set [3], in data set [4], in data set [5] and in data set [6] was “Not Active” throughout. Moreover, the IC50 result in data set [7] and in data set [8] was “Not Active” in each case. The Ki result in data set [2], in data set [4], in data set [6] and in data set [8] was “Not Active” throughout.
`C#C[C@]1(OC(C)=O)CC[C@H]2[C@@H]3CCC4=CC(=O)CC[C@@H]4[C@H]3CC[C@@]21C` [NORETHINDRONE ACETATE]: the IC50 (in general, the concentration that gives 50% inhibition) is “Not Active” in data set [1]; “Not Active” in data set [2]; “Not Active” in data set [3]; “Not Active” in data set [4]; 28 nM in data set [5] (read-out: IC50); “Not Active” in data set [6]. For the same molecule, the IC50 entry in data set [7] and in data set [8] was “Not Active” in each case. For the same molecule, the Ki – broadly, the dissociation constant of the complex between target and ligand, obtained from inhibition or displacement – is “Not Active” in data set [2]; “Not Active” in data set [4]; 3.62 nM in data set [5] (read-out: Ki); “Not Active” in data set [6]; “Not Active” in data set [8].
Consider `COc1ccc2[nH]c([S+]([O-])Cc3ncc(C)c(OC)c3C)nc2c1` (configuration not stated) [OMEPRAZOLE], for which the IC50 result in data set [1], in data set [2], in data set [3], in data set [4], in data set [5] and in data set [6] was “Not Active” throughout. Moreover, the half-maximal inhibitory concentration (IC50) result in data set [7] and in data set [8] was “Not Active” in each case. The Ki entry in data set [2], in data set [4], in data set [6] and in data set [8] was “Not Active” throughout.
`Cc1nccn1CC1CCc2c(c3ccccc3n2C)C1=O` (configuration not stated) [ONDANSETRON]: the IC50 result in data set [1], in data set [2], in data set [3], in data set [4], in data set [5] and in data set [6] was “Not Active” in each case. Also, the IC50 entry in data set [7] and in data set [8] was “Not Active” in each case. The Ki entry in data set [2], in data set [4], in data set [6] and in data set [8] was “Not Active” each time.
Consider `O=C(C1CCCCC1)N1CC(=O)N2CCc3ccccc3C2C1` (configuration not stated) [PRAZIQUANTEL], for which the IC50 entry in data set [1], in data set [2], in data set [3], in data set [4], in data set [5] and in data set [6] was “Not Active” throughout. For the same molecule, the IC50 entry in data set [7] and in data set [8] was “Not Active” each time. Also, the Ki entry in data set [2], in data set [4], in data set [6] and in data set [8] was “Not Active” throughout.
Take `CCN(CC)CCOC(=O)c1ccc(N)cc1` [PROCAINE]: the IC50 result in data set [1], in data set [2], in data set [3], in data set [4], in data set [5] and in data set [6] was “Not Active” in each case. For the same molecule, the IC50 entry in data set [7] and in data set [8] was “Not Active” each time. Moreover, the Ki entry in data set [2], in data set [4], in data set [6] and in data set [8] was “Not Active” in each case.
As for `CCCN(CCC)C(=O)C(CCC(=O)O)NC(=O)c1ccccc1` (configuration not stated) [PROGLUMIDE], the IC50 entry in data set [1], in data set [2], in data set [3], in data set [4], in data set [5] and in data set [6] was “Not Active” each time. Also, the IC50 result in data set [7] and in data set [8] was “Not Active” in each case. For the same molecule, the Ki result in data set [2], in data set [4], in data set [6] and in data set [8] was “Not Active” throughout.
With `NC(=O)c1cnccn1` [PYRAZINAMIDE], the IC50 result in data set [1], in data set [2], in data set [3], in data set [4], in data set [5] and in data set [6] was “Not Active” each time. In addition, the IC50 entry in data set [7] and in data set [8] was “Not Active” in each case. Besides, the Ki entry in data set [2], in data set [4], in data set [6] and in data set [8] was “Not Active” each time.
Turning to `OC(CCN1CCCCC1)(c1ccccc1)C1CCCCC1` (configuration not stated) [TRIHEXYPHENIDYL], the IC50 entry in data set [1], in data set [2], in data set [3], in data set [4], in data set [5] and in data set [6] was “Not Active” each time. Moreover, the 50% inhibitory concentration (IC50) result in data set [7] and in data set [8] was “Not Active” throughout. Further, the inhibition constant Ki entry in data set [2], in data set [4], in data set [6] and in data set [8] was “Not Active” each time.
With `Cc1cc2cc3c(C)cc(=O)oc3c(C)c2o1` [TRIOXSALEN], the IC50 result in data set [1], in data set [2], in data set [3], in data set [4], in data set [5] and in data set [6] was “Not Active” in each case. For the same molecule, the IC50 result in data set [7] and in data set [8] was “Not Active” in each case. Moreover, the Ki result in data set [2], in data set [4], in data set [6] and in data set [8] was “Not Active” each time.
Take `CCCC(CCC)C(=O)O` [VALPROIC ACID]: the IC50 entry in data set [1], in data set [2], in data set [3], in data set [4], in data set [5] and in data set [6] was “Not Active” each time. In addition, the IC50 entry in data set [7] and in data set [8] was “Not Active” in each case. Also, the Ki result in data set [2], in data set [4], in data set [6] and in data set [8] was “Not Active” throughout.
Take `CCC1=C[C@@H]2CN(C1)Cc1c([nH]c3ccccc13)[C@@](C(=O)OC)(c1cc3c(cc1OC)N(C)[C@H]1[C@@](O)(C(=O)OC)[C@H](OC(C)=O)[C@]4(CC)C=CCN5CC[C@]31[C@@H]54)C2` [VINORELBINE]: the IC50 entry in data set [1], in data set [2], in data set [3], in data set [4], in data set [5] and in data set [6] was “Not Active” each time. The IC50 result in data set [7] and in data set [8] was “Not Active” each time. The inhibition constant Ki result in data set [2], in data set [4], in data set [6] and in data set [8] was “Not Active” each time.
